Results: US20240139235A1, “IRON(III) FORMULATIONS FOR THE TREATMENT OF GASTROINTESTINAL INFLAMMATION” (PHARMANUTRA S.P.A., priority 2021, published 2024)

Legend:
Type in all cases: in vivo
[1] = Body weight of mice on iron diets; settings: C57BL/6 male mice, diet 50 mg/kg iron for two weeks; comparison of ID, FS and SI groups (FIG. 1A)
Description: (§1) Thirty C57BL/6 male mice at four weeks of age were subjected to an iron deficient diet (based on the AIN-93G rodent diet, ˜1 mg kg of iron). All mice were bred in the same environment (QIMR Berghofer Animal Facility) to minimise the inherent variability in the microbiome between individual mice.
(§2) After faecal collection at six weeks of age, mice were switched from an iron deficient diet to a diet containing 50 mg/kg of iron such as ferrous sulfate (iron (II) sulfate) or Sucrosomial® iron (ten mice per group).
The remaining ten mice were a control group that remained on the deficient diet.
Faecal samples were then collected from each mouse at eight weeks of age (i.e. two weeks with diets containing iron), the mice sacrificed and the tissues collected for analysis. Liver and serum samples were collected from each animal after euthanasia and stored at −80° C. Haematological parameters were evaluated immediately after euthanasia using a “Coulter Ac-T diff Hematology Analyzer” (Beckman Coulter, Gladesville, NSW, Australia). Serum iron parameters, analysed using the Iron/TIBC Reagent Kit (Pointe Scientific, Canton, MI), and iron levels in tissues were determined as described above [Frazer, D. M., et al. Cell Mol Gastroenterol Hepatol 3, 410-421 (2017)]. […] DNA was extracted from the faecal samples and the microbial profile (QIMR Berghofer Medical Research Institute) was determined. […]

[2] = system: Lachnospiraceae spp, Rikenellaceae RC9, Faecalibaculum, Colidextribacter, Oscillibacter, Parasutterella, Lactobacillus; experiment: Faecal microbiome changes at Amplicon Single Variant (ASV)/genus level; settings: faecal samples, mice, two weeks on diet 50 mg/kg iron vs baseline (FIG. 6G)
Description: as §1
(§3) At six weeks of age (i.e. two weeks with an iron deficient diet), faeces were collected for microbiome analysis. This was the control sample for each mouse and it represents the basic microbiome of that particular animal when the lumen is iron deficient. […]
(§4) Faecal samples were then collected from each mouse at eight weeks of age (i.e. two weeks with diets containing iron), the mice sacrificed and the tissues collected for analysis. […] Haematological parameters were evaluated immediately after euthanasia using a “Coulter Ac-T diff Hematology Analyzer” (Beckman Coulter, Gladesville, NSW, Australia). Serum iron parameters, analysed using the Iron/TIBC Reagent Kit (Pointe Scientific, Canton, MI), and iron levels in tissues were determined as described above [Frazer, D. M., et al. Cell Mol Gastroenterol Hepatol 3, 410-421 (2017)]. […] DNA was extracted from the faecal samples and the microbial profile (QIMR Berghofer Medical Research Institute) was determined. […]

Bacteroidota = experiment: Faecal microbiome changes at phylum level: Bacteroidota; settings: faecal samples, mice, two weeks on diet 50 mg/kg iron vs baseline (FIG. 5)
Description: as §1, §3, §4

gut microbiome of mice = experiment: Faecal microbiome diversity (beta and alpha diversity) in mice; settings: faecal samples, two weeks on diet 50 mg/kg iron
Description: as §1, §3
Faecal samples were then collected from each mouse at eight weeks of age (i.e. two weeks with diets containing iron), the mice sacrificed and the tissues collected for analysis. […] Haematological parameters were evaluated immediately after euthanasia using a “Coulter Ac-T diff Hematology Analyzer” (Beckman Coulter, Gladesville, NSW, Australia). Serum iron parameters, analysed using the Iron/TIBC Reagent Kit (Pointe Scientific, Canton, MI), and iron levels in tissues were determined as described above [Frazer, D. M., et al. Cell Mol Gastroenterol Hepatol 3, 410-421 (2017)]. […] DNA was extracted from the faecal samples and the microbial profile (QIMR Berghofer Medical Research Institute) was determined.

[3] = Iron status and haematological parameters of mice fed iron diets; settings: C57BL/6 male mice, diet 50 mg/kg iron for two weeks
Description: as §1, §2
Faecal samples were then collected from each mouse at eight weeks of age (i.e. two weeks with diets containing iron), the mice sacrificed and the tissues collected for analysis. Liver and serum samples were collected from each animal after euthanasia and stored at −80° C. Haematological parameters were evaluated immediately after euthanasia using a “Coulter Ac-T diff Hematology Analyzer” (Beckman Coulter, Gladesville, NSW, Australia). […] For the analysis of iron and haematological parameters, the statistical differences between the groups were calculated using the unidirectional ANOVA followed by the Tukey post-hoc test for the groups with equal variance or by the Games-Howell post-hoc test for those with unequal variance. Significant differences in variance were identified using the Levene test. DNA was extracted from the faecal samples and the microbial profile (QIMR Berghofer Medical Research Institute) was determined.
• ID: control group, maintained on iron deficient diet (about 1 mg/kg iron). • FS: group fed with diet containing 50 mg/kg of iron in the form of ferrous sulfate (FS abbreviation for ferrous sulfate)—Fe(II). • SI: group fed with diet containing 50 mg/kg of iron in the form of Sucrosomial® iron (SI abbreviation for sucrosomial iron)—Fe(III).
After being sacrificed at the age of eight weeks, iron levels in the liver and in the serum, as well as the haematological parameters of mice of the three groups under analysis (ID, FS and SI) were examined.

ferrous sulfate
body weight [1]: no significant differences | Lactobacillus at the genus level, change vs baseline [2]: no similar decrease | abundance of phylum Bacteroidota, change vs baseline (Bacteroidota): significantly reduced | Shannon index (alpha diversity) per group (gut microbiome of mice; unpaired comparison of groups (FIG. 4A)): lower | beta diversity (overall microbial composition, PCoA) (gut microbiome of mice; vs iron deficient diet (FIG. 3)): able to be distinguished from samples taken from mice on iron-deficient diets | iron concentration in the liver ([3]; Sucrosomial iron vs ferrous sulfate (FIG. 1B)): no significant differences | serum iron levels ([3]; Sucrosomial iron vs ferrous sulfate (FIG. 1C)): no significant differences | transferrin saturation ([3]; Sucrosomial iron vs ferrous sulfate (FIG. 1D)): no significant differences | red blood cell count ([3]; Sucrosomial iron vs ferrous sulfate (FIG. 2A)): no significant differences | haemoglobin ([3]; Sucrosomial iron vs ferrous sulfate (FIG. 2B)): no significant differences | haematocrit ([3]; Sucrosomial iron vs ferrous sulfate (FIG. 2C)): no significant differences | mean corpuscular volume ([3]; Sucrosomial iron vs ferrous sulfate (FIG. 2D)): no significant differences
